Source: PubChem BioAssay AID1259332 (Broad Institute, 2017)
Calls of active or inactive are those of the source. How the calls were made is not given here.

Test system: B cell line, CD40 signaling inhibition reporter
Test: inhibitors of CD40 signaling, dose response, B cell lineage (AID 1259332);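 further: cells stimulated with CD40 ligand tCD40L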

SMILES | AC50
C[C@@H]1CN([C@H](C)CO)C(=O)c2cc(NC(=O)Nc3cccc4ccccc34)ccc2O[C@@H](C)CCCCO[C@H]1CN(C)Cc1ccc(C(F)(F)F)cc1 | 1.91 µM
O=C(COC(=O)c1ccccc1C(=O)c1ccc(Cl)c([N+](=O)[O-])c1)NC1CC1 | 1.62 µM
COc1ccc(S(=O)(=O)N(C)C[C@H]2Oc3ccc(NC(=O)Nc4ccc(C(F)(F)F)cc4)cc3C(=O)N([C@@H](C)CO)C[C@H]2C)cc1 | > 20 µM (inactive)
COc1ccc(C=Cc2ccc3ccccc3n2)c(OC)c1 | 11.3 µM
O=S(=O)(CCSc1ccccn1)c1nc2ccccc2s1 | 8.22 µM
CC1=C(O)C(=O)C=C2C1=CC=C1C2(C)CCC2(C)C3CC(C)(C(=O)O)CCC3(C)CCC12C (stereo unspecified) | 0.888 µM
Cc1cc(C(=O)COC(=O)c2ccco2)c(C)n1Cc1ccco1 | 0.11 µM
COc1ccc(S(=O)(=O)Nc2ccc3c(c2)C(=O)N([C@@H](C)CO)C[C@@H](C)[C@@H](CN(C)Cc2ccc(C(F)(F)F)cc2)OCCCC[C@H](C)O3)cc1 | > 7 µM (inactive)
COc1ccc(S(=O)(=O)Nc2ccc3c(c2)C(=O)N([C@H](C)CO)C[C@@H](C)[C@@H](CN(C)Cc2ccc(C(F)(F)F)cc2)OCCCC[C@@H](C)O3)cc1 | 8.69 µM
CCCn1c(NC(=O)c2cccc(S(=O)(=O)N3CCCC3)c2)nc2ccccc21 | 2.02 µM
C[C@H]1CN([C@@H](C)CO)C(=O)c2ccccc2-c2ccccc2CO[C@H]1CN(C)C(=O)[C@@H](Cc1ccccc1)N(C)C | > 20 µM (inactive)
N#Cc1cccc(-c2ccc(C3[C@@H]4CN(C(=O)Nc5ccc(C(F)(F)F)cc5)C[C@H]3N4)cc2)c1 (stereo partly specified) | 8.9 µM
NCCOc1ccc(C23CC4CC(CC(C4)C2)C3)cc1 | 5.74 µM
O=C(C#Cc1ccccc1)c1ccccc1 | 6.37 µM
CC[N+]1(C)CCC(O)(c2ccc(OC)cc2)C(C(=O)c2ccc(OC)cc2)C1 (stereo unspecified) | 3.75 µM
COc1cc2c(cc1OC)C(=O)C(Br)CC2 (stereo unspecified) | 3.76 µM
Cc1cccc(-c2ccc(C3[C@@H]4CN(C(=O)Nc5ccc(C(F)(F)F)cc5)C[C@H]3N4)cc2)c1 (stereo partly specified) | 7.37 µM
O=C1NC2c3c(I)sc(I)c3C(=O)C2O1 (stereo unspecified) | 3.2 µM
N#C[C@@H]1[C@H](c2ccc(C#CC3CCCC3)cc2)[C@H](CO)N1C(=O)Cc1ccccn1 | 9.08 µM
COc1ccc(/C=N/Nc2ncccc2[N+](=O)[O-])c(OC)c1 | 4.23 µM
CC12CCC3C(CCC4(O)CC(O)CCC34C=O)C1(O)CCC2C1=CC(=O)OC1 (stereo unspecified) | 3.86 µM
COc1cccc(/C=N/Nc2ccc(C(=O)O)cc2)c1O | 1.33 µM

SMILES | AC50
C[C@@H]1CCCCO[C@H](CN(C)CC2CCCCC2)[C@H](C)CN([C@@H](C)CO)C(=O)c2cc(NC(=O)Nc3ccc(C(F)(F)F)cc3)ccc2O1 | 8.6 µM
CC(=NNC(=S)N1CC2CCC(CC2)C1)c1nccs1 | > 7 µM (inactive)
COC(=O)c1ccccc1-c1c2ccc(=N)cc-2oc2cc(N)ccc12 | 10.9 µM
CC(C)(C)OC(=O)CC(S(=O)(=O)c1ccccc1)S(=O)(=O)c1ccccc1 | 0.95 µM
CNc1c2cccc(C)c2nc2c(C(=O)NCCN(C)C)cccc12 | 0.266 µM
O=C(C1CCCC1)N1CC(=O)N2[C@@H](CO)[C@@H](c3ccc(C#CCc4ccccc4)cc3)[C@@H]2C1 | 1.95 µM
C[C@H]1O[C@@H](O[C@H]2[C@@H](O)C[C@H](O[C@H]3[C@@H](O)C[C@H](O[C@H]4CC[C@]5(C)C6CC[C@]7(C)[C@@H](C8=CC(=O)OC8)CC[C@]7(O)C6CC[C@@H]5C4)O[C@@H]3C)O[C@@H]2C)C[C@H](O)[C@@H]1O (stereo partly specified) | 0.929 µM
Cc1ccc(O)c(N=Nc2ccccc2)n1 | 8.46 µM
C=C1CC(Cn2cc(Br)c(=O)[nH]c2=O)(c2ccc(-c3ccccc3)cc2)OC1=O (stereo unspecified) | 1.07 µM
CC(C)Cc1ccc(C(C)CC2=CCC(CN(C)C)C2=O)cc1 (stereo unspecified) | 3.99 µM
Cc1ccc(N2CC(C(=O)Nc3nccs3)CC2=O)cc1Cl (stereo unspecified) | 8.73 µM
CC1(C)C(=O)C=C[C@@]2(C)C1C(=O)C(=O)[C@]1(C)C2CC[C@@]2(C)[C@H](c3ccoc3)C[C@H]3O[C@]321 (stereo partly specified) | 3.47 µM
C[C@H](CO)N1C[C@H](C)[C@@H](CN(C)Cc2cccc(C(F)(F)F)c2)OCc2ccccc2-c2c(n(C)c3ccccc23)C1=O | > 20 µM (inactive)
CC1OC(CC(=O)O)CC2=C1C(=O)c1c(O)cccc1C2=O (stereo unspecified) | 0.204 µM
C[C@@H]1CCCCO[C@@H](CN(C)Cc2ccc(Cl)c(Cl)c2)[C@H](C)CN([C@H](C)CO)C(=O)c2cc(NS(=O)(=O)c3cccs3)ccc2O1 | 7.26 µM
C[C@H](CO)N1C[C@H](C)[C@@H](CN(C)Cc2ccc(Oc3ccccc3)cc2)Oc2c(NC(=O)CCC(F)(F)F)cccc2C1=O | 8.77 µM
CC1(C)C(=O)C=C[C@@]2(C)C1C=C[C@]1(C)C2CC[C@@]2(C)[C@H](c3ccoc3)OC(=O)[C@H]3O[C@]321 (stereo partly specified) | 5.24 µM
CC1=C(C#N)c2nc(N)c(C#N)c(C)c2/C1=C\c1ccccc1 | 4.41 µM
c1ccc(-c2nnc(-c3ccccn3)nn2)nc1 | 10.5 µM
COc1c(-c2coc3cc4c(cc3c2=O)CC(O)C(C)(C)O4)ccc2c1C=CC(C)(C)O2 (stereo unspecified) | > 20 µM (inactive)
CN(C)c1ccc(C=c2c3cc(O)ccc3n3c2cc(-c2ccccc2)[n+]3C)cc1 | 3.43 µM
CC1CCOC(=O)C=CC=CC(=O)OC2CC3OC4C5OC5(C)C(O)CC4(COC(=O)C1O)C2(C)C31CO1 (stereo unspecified) | 0.0446 µM

SMILES | AC50
O=C(Nc1nnc(C2CC2)s1)C1CC(=O)N(c2ccc3c(c2)OCCO3)C1 (stereo unspecified) | > 20 µM (inactive)
N#C[C@@H]1[C@H](c2ccc(C#Cc3ccccc3F)cc2)[C@@H](CO)N1C(=O)C1CC1 | 1.59 µM
CC1CC(C)C(=NNC(N)=O)C(C(O)CC2CCC(=O)NC2=O)C1 (stereo unspecified) | 0.241 µM
CC(C)c1c(O)ccc2c1CCC1C(C)(C)CCC[C@]21C (stereo partly specified) | 5.44 µM
COCCn1c(C)cc(C(=O)COC(=O)c2ccc(Cl)c(S(N)(=O)=O)c2)c1C | > 20 µM (inactive)
C[C@@H]1CN([C@@H](C)CO)C(=O)c2c(c3ccccc3n2C)-c2ccccc2CO[C@H]1CN(C)Cc1ccccc1 | 8.22 µM
CC(=NNc1ccc2ccccc2n1)c1ccccc1O | 2.94 µM
C[C@H]1O[C@@H](O[C@H]2[C@@H](O)C[C@H](O[C@H]3[C@@H](O)C[C@H](O[C@H]4CC[C@]5(C)C6C[C@@H](O)[C@]7(C)[C@@H](C8=CC(=O)OC8)CC[C@]7(O)C6CC[C@@H]5C4)O[C@@H]3C)O[C@@H]2C)C[C@H](O)[C@@H]1O (stereo partly specified) | 2.59 µM
C[C@@H]1CN([C@@H](C)CO)C(=O)c2c(c3ccccc3n2C)-c2ccccc2CO[C@@H]1CN(C)Cc1cccc(C(F)(F)F)c1 | 7.08 µM
CC(C)CC#Cc1ccc([C@@H]2[C@H]3CN(C(=O)Nc4ccccc4)CCCCN3[C@H]2CO)cc1 | 9.52 µM
CC1CC(C)C(=O)C(C(CC2CC(=O)NC(=O)C2)OC(=O)CC(=O)c2ccccc2)C1 (stereo unspecified) | 3.18 µM
c1ccc(-c2nc(-c3ccccn3)no2)cc1 | 3.98 µM
N#CC(C#N)=NNc1cccc(Cl)c1 | 6.54 µM
CCCCCN1C=CC(=C2C(=O)c3ccccc3C2=O)C=C1 | 0.127 µM
Cc1ccc(CN2CC(C(=O)Nc3ncc(C)s3)CC2=O)cc1 (stereo unspecified) | 4.99 µM
Cc1cnc(NC(=O)c2ccc(OCC3CCCO3)cc2)s1 (stereo unspecified) | 3.03 µM
CC1CC(C)(C)Nc2ccc(OC(=O)c3ccco3)cc21 (stereo unspecified) | 3.23 µM
O=C(C1CCC1)N1CCc2cc(S(=O)(=O)N3CCCCC3)ccc21 | > 20 µM (inactive)
CC(C)(C)NCC(=Cc1ccccc1)C(=O)c1ccccc1 | 7.22 µM
Cn1cnc(CCNC(=O)C[C@@H]2CC[C@@H]3[C@H](COC[C@@H](O)CN3C(=O)Nc3ccc(C(F)(F)F)cc3)O2)c1 | 8.76 µM
O=C(Nc1cccc(N2C(=O)C=CC2=O)c1)c1cccs1 | 1.68 µM
Nc1ccc(-c2cccc3c(=O)cc(N4CCOCC4)oc23)cc1 | 10.9 µM

SMILES | AC50
O=C(Cn1ncc(Cl)c(Cl)c1=O)NC1CCCCC1 | 4.96 µM
NC(c1ccccc1)c1csc(NC(=O)Nc2cccc(C(F)(F)F)c2)n1 (stereo unspecified) | 6.03 µM
Cc1ccc(OC(=O)N(C)C[C@@H]2OCc3ccccc3-c3c(n(C)c4ccccc34)C(=O)N([C@@H](C)CO)C[C@H]2C)cc1 | 7.62 µM
CCS(=O)(=O)N1Cc2ccccc2CC1C(=O)Nc1nc2ccccc2s1 (stereo unspecified) | 10.9 µM
C[C@H]1CN([C@@H](C)CO)C(=O)Cc2cc(NS(=O)(=O)c3cccs3)ccc2O[C@@H]1CN(C)Cc1ccc(Cl)c(Cl)c1 | 5.83 µM
CC12CCC3C(CCC4(O)CC(O)CCC34C=NO)C1(O)CCC2C1=COC(=O)C1 (stereo unspecified) | 0.586 µM
O=C(/C=C/c1ccccc1)CC(O)(c1ccccc1)C(F)(F)C(F)F (stereo unspecified) | 6.39 µM
O=C1CC(=O)OC(c2ccc([N+](=O)[O-])cc2)O1 | 0.629 µM
CC1=CC2OC3CC4OC(=O)C=CC=CC(C(C)O)OCC(O)C5(C)OC5C(=O)OCC2(CC1O)C4(C)C31CO1 (stereo unspecified) | 0.0375 µM
COc1ccc(-c2ccc([C@H]3[C@@H](C#N)N(C(=O)c4cccc(F)c4)[C@H]3CO)cc2)cc1 | > 22 µM (inactive)
COc1ccc2cc(-c3cc(C(=O)O)c4ccccc4n3)ccc2c1 | 6.11 µM
CC(=O)NC12CC3CC(C1)CC(C(=O)OCC(=O)c1ccc4c(c1)OCCO4)(C3)C2 | 6.31 µM
C[C@@H]1O[C@@H](O[C@H]2C[C@@H](O)[C@]3(CO)C4C(CC[C@]3(O)C2)[C@@]2(O)CC[C@H](C3=CC(=O)OC3)[C@@]2(C)C[C@H]4O)[C@H](O)[C@H](O)[C@H]1O (stereo partly specified) | 0.294 µM
CC1CNCCN1S(=O)(=O)c1cccc2cnccc12 (stereo unspecified) | 9.01 µM
N#Cc1cccc(-c2ccc(C3[C@H]4CNC[C@@H]3N4Cc3ccc4c(c3)OCO4)cc2)c1 (stereo partly specified) | > 20 µM (inactive)
C[C@H](CO)N1C[C@H](C)[C@H](CN(C)S(=O)(=O)c2ccc(Cl)cc2)Oc2c(NC(=O)Nc3ccc(F)cc3)cccc2C1=O | 6.47 µM
CC(=O)OC1C(=O)OCC23CCC4(C)OC4C2OC2CC(OC(=O)C=CC=CC(=O)OCCC1C)C3(C)C21CO1 (stereo unspecified) | 0.0056 µM
N#C[C@@H]1[C@H](c2ccc(C#CC3CCCCC3)cc2)[C@@H](CO)N1C(=O)Nc1ccc(F)cc1 | 10.4 µM
COCC(=O)N1[C@H](C#N)[C@H](c2ccc(C#Cc3ccccc3F)cc2)[C@H]1CO | 0.856 µM
Cc1noc(C)c1S(=O)(=O)Nc1ccc2c(c1)C(=O)N([C@@H](C)CO)C[C@@H](C)[C@@H](CN(C)C(=O)Nc1cccc3ccccc13)OCCCC[C@H](C)O2 | 1.52 µM
